For one series, the system named is rats. Nature of the series: aconitine-induced disturbance of the heart rhythm in rats (electrocardiogram). Conditions: for ED25 / ED50: Rattus norvegicus. It is filed as in vivo. The text has this:
The anti-arrhythmic effect of the diamines could also be confirmed in intact research animals with an experimentally-induced disturbance of the heart rhythm. If rats are continuously infused intravenously with aconitine, severe disturbances in the heartbeat sequence, such as extrasystoles, ventricular tachycardia, and ventricular flutter, which eventually lead to the death of the experimental animal, can be detected in an electrocardiogram. By a pre-treatment with the new pharmaceutical agents, the appearance of these threatening disturbances of the heart rhythm can be hindered or, on continuous administration of aconitine, can be considerably delayed. This experimental model of arrhythmia has already been checked for its evidentiary value using clinically tested standard therapeutic agents and is highly suitable for an experimental animal characterization of anti-arrhythmic agents [cf. Bianchi et al., Arzneim. Forsch. 18, 845-850 (1968); Haas and Busch, Arzneim. Forsch. 18, 401-407 (1968); Haas et al., Arzneim. Forsch. 21, 1392-1399 (1971); Marmo, Naunyn-Schmiedeberg's Arch. Pharmak. 269, 231-247 (1971); and Strubelt et al., Naunyn-Schmiedeberg's Arch. Pharmak. 271, 346-360 (1971)].
The ED25 and ED50 are the intravenous or oral doses in mg/kg that permit a 25 percent or 50 percent increase in the dosage of aconitine administered, versus the aconitine control, until the occurrence of extrasystoles, ventricular tachycardia, and ventricular flutter.

Series [1] concerns left auricle of the guinea pig. The experiment in a line: functional refractory period of the left auricle of the guinea pig using paired electrical stimulation (anti-arrhythmic effect). The settings on record: for activation at 100 µM: 10^-^4 Mol/l; for Anti-arrhythmic Effect (Prolongation of the Refractory Period) ED25: dose which lengthens the refractory period by 25 percent, up to 30 minutes after addition to bath liquid; for activation at 10 µM: 10^-^5 Mol/l. An excerpt:
(§1) Jovier, J. Pharmakol. Exp. Therap. 148, 100-105 (1965). In this experimental arrangement, the numerous anti-arrhythmic agents, of different chemical structure and different therapeutic points of attack in man, heretofore used in therapy are all characterized by a lengthening of the functional refractory period. The method additionally permits determining the effects of the substance on the contractile force of the heart muscle [Reuter and Heeg, Naunyn-Schmiedeberg's Arch. Pharmak. 268, 323-333 (1971) and Zetler and Strubelt, Naunyn-Schmiedeberg's Arch. Pharmak. 271, 335-345 (1971)]. It is, thus, highly suitable for detecting substances having a large therapeutic breadth, i.e., with a large margin of safety between anti-arrhythmically- and negative inotropically-effective doses.
The testing of the substances employed up to 30 individual experiments in each case. For the determination of the effective dose, linear regression functions were calculated [cf. A. Lindner, Statistische Methoden, 3rd Edition, Birkhaeuser Verlag, Basel (1969)], in which the maximum percentage deviations from the starting value in a time period up to 30 minutes after addition of the test substance to the bath liquid was employed.
(§2) In column I of following Table 1, one of the new compounds and known anti-arrhythmic agents are entered. Column II gives the anti-arrhythmic effect. Column III reports the inotropic effect. The therapeutic breadth of the compounds is given in column IV. The ED25 is the effective dose which lengthens the refractory period by 25 percent or lowers the contractile force by 25 percent.

In series [2] the test system is left auricle of the guinea pig. Nature of the series: inotropic effect: decrease in contractile force of the heart muscle. The settings on record: for Therapeutic Breadth (III/II): ratio ED25 inotropic / ED25 anti-arrhythmic.
Description: as §1, with “148, 100-105 (1965).” left out, “268, 323-333 (1971) and Zetler and Strubelt, Naunyn-Schmiedeberg's Arch.” left out, “271, 335-345 (1971)].” left out
The testing of the substances employed up to 30 individual experiments in each case. For the determination of the effective dose, linear regression functions were calculated [cf.
as §2

Where [3] appears, read: iv, read-out: Ventr. Tachycardia ED25.
Where [4] appears, read: iv, read-out: Ventr. Tachycardia ED50.
Where [5] appears, read: Cavia porcellus, read-out: Anti-arrhythmic Effect (% Prolongation of the Refractory Period).
Setting [6] is: dose which lowers the contractile force by 25 percent, up to 30 minutes after addition to bath liquid.

Where two headings read alike, the source gives them in different places.

For the molecule `c1ccc(CNCCCNCc2ccccc2)cc1`, the ED25 in the series with rats (iv, read-out: Extrasystoles ED25) turned out to be 5.2 mg/kg; in the series on rats (iv, read-out: Ventr. Flutter ED25) it was 4.9 mg/kg; in the series on rats (setting [3]), 5.3 mg/kg; with rats (po, read-out: Extrasystoles ED25), 65.8 mg/kg; with rats (po, read-out: Ventr. Flutter ED25), 51.1 mg/kg; in the series on rats (po, read-out: Ventr. Tachycardia ED25) it was 55.4 mg/kg. In addition, the 50% effective dose (ED50) worked out at 6 mg/kg in the series with rats (iv, read-out: Extrasystoles ED50); 6.4 mg/kg with rats (iv, read-out: Ventr. Flutter ED50); 6.2 mg/kg with rats (setting [4]); 96.2 mg/kg in the series with rats (po, read-out: Extrasystoles ED50); 69.9 mg/kg with rats (po, read-out: Ventr. Flutter ED50); 71.6 mg/kg in the series on rats (po, read-out: Ventr. Tachycardia ED50). Also, the “effect in aconitine arrhythmia” value in the series with rats (Table 3, parenterally as well as orally) is recorded as “superior effect”. In addition, the activation at 100 µM in series [1] (setting [5]) worked out at 47%. Besides, the “Anti-arrhythmic Effect (Prolongation of the Refractory Period) ED25” value (shortened to “Anti-arrhythmic Effect”) in series [1] was determined as 0.054. In series [2] (guinea pig), the “Inotropic Effect (Decrease in Contractile Force) ED25” value was found to be 0.141. Further, the “Therapeutic Breadth (III/II)” value in series [2] stood at 2.6.

In the case of `c1ccc(CN(CC2=NCCN2)c2ccccc2)cc1` [Antazoline, antazoline], the “Anti-arrhythmic Effect” value in series [1] is reported as 0.164. The “Inotropic Effect (Decrease in Contractile Force) ED25” value in series [2] (setting [6]) is reported as 0.094. The “Therapeutic Breadth (III/II)” value in series [2] was 0.6.

In the case of `Clc1cccc(CNCCCNCc2cccc(Cl)c2)c1` [N,N'-di-(3'-chlorobenzyl)-propylene-1,3-diamine], the activation at 20 µM in series [1] (Cavia porcellus, 2 × 10^-^5 Mol/l, read-out: Anti-arrhythmic Effect (% Prolongation of the Refractory Period)) worked out at 45%.

On to `Clc1ccc(CNCCCNCc2ccc(Cl)cc2)cc1` [N,N'-di-(4'-chlorobenzyl)-1,3-diaminopropane], for which, in series [1] (setting [5]), the activation at 10 µM stood at 37%.

For `Clc1ccc(CNCCCNCc2ccc(Cl)c(Cl)c2)cc1Cl` [N,N'-di-(m,p-dichlorobenzyl)-propylenediamine], the activation at 10 µM in series [1] (setting [5]) stood at 26%.

On to `COc1ccc(CNCCCNCc2ccc(OC)c(OC)c2)cc1OC` [N,N'-di-(m,p-dimethoxybenzyl)propylenediamine], for which the activation at 100 µM in series [1] (setting [5]) turned out to be 42%.

`c1ccc(CNCCNCc2ccccc2)cc1` [N,N'-dibenzyl-ethylenediamine]: the activation at 100 µM in series [1] (setting [5]) was found to be 39%.

Take `CCC[N+]12C(O)C(CC)C3CC1C1N(C)c4ccccc4C14CC2C3C4O` (stereo not drawn) [N,n-propylajmaline, N-propylajmaline]: the “Anti-arrhythmic Effect” value in series [1] turned out to be 0.0037. Further, in series [2] (setting [6]), the “Inotropic Effect (Decrease in Contractile Force) ED25” value was 0.0015. For the same molecule, the “Therapeutic Breadth (III/II)” value in series [2] is reported as 0.4.

Turning to `C1CCN2C[C@@H]3C[C@@H](CN4CCCC[C@@H]34)[C@H]2C1` [SPARTEINE, reference compound], the ED25 with rats (setting [3]) stood at 4.4 mg/kg. Moreover, the ED50 in the series on rats (setting [4]) was 9.6 mg/kg.

Broadly, the ED50 is the dose that gives a 50% effect, or the effect in half of the subjects.

The values above are taken from patent US4010282A, “Anti-arrhythmic agents” (Knoll A.G. Chemische Fabriken, priority 1974, dated 1977).
